Experimental data: ChEMBL document CHEMBL1124133, “Synthesis and hypolipidemic activity of 2-substituted isobutyric acid derivatives” (1988)

What was measured:
Assay type in all cases: functional
Details in all cases: route oral
Rattus norvegicus [1] = test: Hypolipidemic effects in rat fed a normal diet by peroral administration at 100 mg/kg dose(increase in liver weight with respect to body weight mg/g)
Rattus norvegicus [2] = test: Hypolipidemic effects of compound on rat plasma high density lipoprotein cholesterol (HDLC) level after peroral administration at 100 mg/kg dose
Rattus norvegicus [3] = test: Hypolipidemic effects of compound on rat plasma Triglyceride (TG) level after peroral administration at 100 mg/kg dose
Rattus norvegicus [4] = test: Hypolipidemic effects in rat fed a high cholesterol diet (HC) by peroral administration at 100 mg/kg dose.(increase in liver weight with respect to body weight mg/g)
Rattus norvegicus [5] = test: Hypolipidemic effect on rat plasma Total cholesterol (TC) level by peroral administration at 100 mg/kg dose
Rattus norvegicus [6] = test: Hypolipidemic effect in rat plasma Total cholesterol (TC) by peroral administration at 100 mg/kg dose
Rattus norvegicus [7] = test: Hypolipidemic effects in rat plasma Triglyceride (TG) by peroral administration at 100 mg/kg dose
Rattus norvegicus [8] = test: Hypolipidemic effects in rat fed a high cholesterol diet (HC) by peroral administration at 100 mg/kg dose.
Rattus norvegicus [9] = test: Hypolipidemic effects in rat plasma high density lipoprotein cholesterol (HDLC) by peroral administration at 100 mg/kg dose
Rattus norvegicus [10] = test: Hypolipidemic effects in rat fed a high cholesterol diet (HC) by peroral administration at 100 mg/kg dose. (increase in liver weight with respect to body weight mg/g)
Rattus norvegicus [11] = test: Hypolipidemic effects in rat fed a normal diet by peroral administration at 100 mg/kg dose.(increase in liver weight with respect to body weight mg/g)
Rattus norvegicus [12] = test: Hypolipidemic effects of compound on rat plasma Triglyceride (TG) level after by peroral administration at 100 mg/kg dose
Rattus norvegicus [13] = test: Hypolipidemic effects in rat fed a normal diet by peroral administration at 100 mg/kg dose.
Rattus norvegicus [14] = test: Hypolipidemic effects in rat fed a high cholesterol diet (HC) by peroral administration at 100 mg/kg dose(increase in liver weight with respect to body weight mg/g)
Rattus norvegicus [15] = test: Hypolipidemic effects in rat fed a high cholesterol diet (HC) by peroral administration at 100 mg/kg dose (increase in liver weight with respect to body weight mg/g)
Rattus norvegicus [16] = test: Hypolipidemic effects of compound on rat plasma Triglyceride (TG) level after peroral administration at 100 mg/kg dose (Experiment 2)
Rattus norvegicus [17] = test: Hypolipidemic effect on rat plasma Total cholesterol (TC) level by peroral administration at 100 mg/kg dose (Experiment 2)
Rattus norvegicus [18] = test: Hypolipidemic effects in rat fed a high cholesterol diet (HC) by peroral administration at 100 mg/kg dose.(increase in liver weight with respect to body weight mg/g); (Experiment 2)
Rattus norvegicus [19] = test: Hypolipidemic effects of compound on rat plasma Triglyceride (TG) level after peroral administration at 100 mg/kg dose (Experiment 1)
Rattus norvegicus [20] = test: Hypolipidemic effects of compound on rat plasma high density lipoprotein cholesterol (HDLC) level after peroral administration at 100 mg/kg dose (Experiment 2)
Rattus norvegicus [21] = test: Hypolipidemic effects in rat fed a high cholesterol diet (HC) by peroral administration at 100 mg/kg dose.(increase in liver weight with respect to body weight mg/g); (Experiment 1)
Rattus norvegicus [22] = test: Hypolipidemic effects in rat fed a normal diet by peroral administration at 100 mg/kg dose.(increase in liver weight with respect to body weight mg/g); (Experiment 1)
Rattus norvegicus [23] = test: Hypolipidemic effects of compound on rat plasma high density lipoprotein cholesterol (HDLC) level after peroral administration at 100 mg/kg dose (Experiment 1)
Rattus norvegicus [24] = test: Hypolipidemic effect on rat plasma Total cholesterol (TC) level by peroral administration at 100 mg/kg dose (Experiment 1)
Rattus norvegicus [25] = test: Hypolipidemic effects in rat fed a normal diet by peroral administration at 100 mg/kg dose.(increase in liver weight with respect to body weight mg/g); (Experiment 2)

CC(C)(CCCCCCOc1ccc(CCCCc2ccccc2)cc1)C(=O)O
Liver weight (Rattus norvegicus [1]): 42.3 mg (g of body weight)-1 | HDL-C (Rattus norvegicus [2]): 58.1 mg/dL | TG (Rattus norvegicus [3]): 48.9 mg/dL | Liver weight (Rattus norvegicus [4]): 60.2 mg (g of body weight)-1 | TC (Rattus norvegicus [5]): 150.7 mg/dL

Cc1cnc(C(=O)OCC(C)(C)CCCCOc2ccc(CCCCc3ccccc3)cc2)cn1
HDL-C (Rattus norvegicus [2]): 47.6 mg/dL | TG (Rattus norvegicus [3]): 41 mg/dL | Liver weight (Rattus norvegicus [4]): 58 mg (g of body weight)-1 | TC (Rattus norvegicus [5]): 145.1 mg/dL

CC(C)(CCCCCCCCCCOc1ccc(CCCCc2ccccc2)cc1)C(=O)O
TC (Rattus norvegicus [6]): 248.6 mg/dL | TG (Rattus norvegicus [7]): 52.8 mg/dL | Liver weight (Rattus norvegicus [8]): 57.2 mg (g of body weight)-1 | HDL-C (Rattus norvegicus [9]): 48.6 mg/dL

CC(C)(CCCOc1ccc(CCc2ccccc2)cc1)C(=O)O
HDL-C (Rattus norvegicus [2]): 32 mg/dL | TG (Rattus norvegicus [3]): 92.7 mg/dL | Liver weight (Rattus norvegicus [4]): 53.5 mg (g of body weight)-1 | TC (Rattus norvegicus [5]): 282.8 mg/dL

CC(C)(CCCOc1ccc(-c2ccccc2)cc1)C(=O)O
HDL-C (Rattus norvegicus [2]): 39.9 mg/dL | TG (Rattus norvegicus [3]): 54.3 mg/dL | TC (Rattus norvegicus [5]): 222.7 mg/dL | Liver weight (Rattus norvegicus [10]): 54.7 mg (g of body weight)-1

CC(C)(CCCOc1ccc(CCCc2ccccc2)cc1)C(=O)O
HDL-C (Rattus norvegicus [2]): 40.6 mg/dL | Liver weight (Rattus norvegicus [4]): 54 mg (g of body weight)-1 | Liver weight (Rattus norvegicus [11]): 39.1 mg (g of body weight)-1 | TC (Rattus norvegicus [5]): 217.5 mg/dL | TG (Rattus norvegicus [12]): 79.5 mg/dL

CC(C)(CCCOc1ccc(CCCCCc2ccccc2)cc1)C(=O)O
HDL-C (Rattus norvegicus [2]): 38.1 mg/dL | Liver weight (Rattus norvegicus [4]): 54.1 mg (g of body weight)-1 | Liver weight (Rattus norvegicus [11]): 40 mg (g of body weight)-1 | TC (Rattus norvegicus [5]): 261.9 mg/dL | TG (Rattus norvegicus [12]): 71.9 mg/dL

CC(C)(CCCCCCCCOc1ccc(CCCCc2ccccc2)cc1)C(=O)O
Liver weight (Rattus norvegicus [13]): <39.3 mg (g of body weight)-1 | TC (Rattus norvegicus [6]): <150 mg/dL | TG (Rattus norvegicus [7]): 47.6 mg/dL | Liver weight (Rattus norvegicus [8]): 58.4 mg (g of body weight)-1 | HDL-C (Rattus norvegicus [9]): <53.7 mg/dL

Cc1cnc(COC(=O)C(C)(C)CCCCOc2ccc(CCCCc3ccccc3)cc2)cn1
Liver weight (Rattus norvegicus [1]): 38.2 mg (g of body weight)-1 | HDL-C (Rattus norvegicus [2]): 51.7 mg/dL | Liver weight (Rattus norvegicus [4]): 59.6 mg (g of body weight)-1 | TC (Rattus norvegicus [5]): 181.5 mg/dL | TG (Rattus norvegicus [12]): 36.9 mg/dL

CC(C)(CCCOc1ccc(CCNC(=O)c2ccccc2)cc1)C(=O)O
HDL-C (Rattus norvegicus [2]): 42.1 mg/dL | Liver weight (Rattus norvegicus [14]): 57 mg (g of body weight)-1 | TG (Rattus norvegicus [3]): 49.4 mg/dL | TC (Rattus norvegicus [5]): 204.1 mg/dL

Cc1ccc(C)c(OCCCC(C)(C)C(=O)O)c1 [GEMFIBROZIL]
HDL-C (Rattus norvegicus [2]): 51.5 mg/dL | TG (Rattus norvegicus [3]): 53.1 mg/dL | Liver weight (Rattus norvegicus [11]): 51.4 mg (g of body weight)-1 | TC (Rattus norvegicus [5]): 358.7 mg/dL | Liver weight (Rattus norvegicus [15]): 54.8 mg (g of body weight)-1

CC(C)(CCCCCOc1ccc(CCCCc2ccccc2)cc1)C(=O)O
HDL-C (Rattus norvegicus [2]): 52.4 mg/dL | TG (Rattus norvegicus [3]): 60.4 mg/dL | Liver weight (Rattus norvegicus [4]): 58.3 mg (g of body weight)-1 | Liver weight (Rattus norvegicus [11]): 36.7 mg (g of body weight)-1 | TC (Rattus norvegicus [5]): 190.6 mg/dL

CC(C)(CCCOc1ccc(CCCCCCc2ccccc2)cc1)C(=O)O
HDL-C (Rattus norvegicus [2]): 38.4 mg/dL | Liver weight (Rattus norvegicus [14]): 52.1 mg (g of body weight)-1 | TC (Rattus norvegicus [5]): 256.1 mg/dL | TG (Rattus norvegicus [12]): 86.2 mg/dL

CC(C)(CCCCOc1ccc(CCCCc2ccccc2)cc1)COC(=O)c1cccnc1
Liver weight (Rattus norvegicus [1]): 39.7 mg (g of body weight)-1 | HDL-C (Rattus norvegicus [2]): 49.9 mg/dL | TG (Rattus norvegicus [3]): 46.7 mg/dL | Liver weight (Rattus norvegicus [4]): 57.8 mg (g of body weight)-1 | TC (Rattus norvegicus [5]): 152 mg/dL

CC(C)(CCCOc1ccc(CCCCc2ccccc2)cc1)C(=O)O
HDL-C (Rattus norvegicus [2]): 35.2 mg/dL | TG (Rattus norvegicus [3]): 76.9 mg/dL | Liver weight (Rattus norvegicus [4]): 54.5 mg (g of body weight)-1 | TC (Rattus norvegicus [5]): 258.3 mg/dL

CC(C)(CCCOc1ccc(C(=O)c2ccccc2)cc1)C(=O)O
HDL-C (Rattus norvegicus [2]): 57.6 mg/dL | Liver weight (Rattus norvegicus [14]): 81.8 mg (g of body weight)-1 | TG (Rattus norvegicus [3]): 53.6 mg/dL | TC (Rattus norvegicus [5]): 260.8 mg/dL

CC(C)(CCCCCCCCCOc1ccc(CCCCc2ccccc2)cc1)C(=O)O
Liver weight (Rattus norvegicus [13]): <38.2 mg (g of body weight)-1 | TC (Rattus norvegicus [6]): <173.6 mg/dL | TG (Rattus norvegicus [7]): 57.3 mg/dL | Liver weight (Rattus norvegicus [8]): 57.5 mg (g of body weight)-1 | HDL-C (Rattus norvegicus [9]): <55 mg/dL

Cc1ccc(CCCCc2ccc(OCCCCC(C)(C)C(=O)O)cc2)c(C)c1
Liver weight (Rattus norvegicus [1]): 41.8 mg (g of body weight)-1 | HDL-C (Rattus norvegicus [2]): 73 mg/dL | Liver weight (Rattus norvegicus [14]): 62.3 mg (g of body weight)-1 | TG (Rattus norvegicus [3]): 37 mg/dL | TC (Rattus norvegicus [5]): 173.9 mg/dL

CC(C)(CCCOc1ccc(Cc2ccccc2)cc1)C(=O)O
HDL-C (Rattus norvegicus [2]): 29.9 mg/dL | TG (Rattus norvegicus [3]): 84.7 mg/dL | TC (Rattus norvegicus [5]): 284.4 mg/dL | Liver weight (Rattus norvegicus [10]): 53.2 mg (g of body weight)-1

Cc1ccc(C)c(CCCCc2ccc(OCCCCC(C)(C)C(=O)O)cc2)c1
Liver weight (Rattus norvegicus [1]): 40 mg (g of body weight)-1 | HDL-C (Rattus norvegicus [2]): 56 mg/dL | TG (Rattus norvegicus [3]): 34.4 mg/dL | Liver weight (Rattus norvegicus [4]): 59.9 mg (g of body weight)-1 | TC (Rattus norvegicus [5]): 125.9 mg/dL

Cc1cnc(C(=O)OCC(C)(C)CCCCOc2ccc(CCCCc3ccccc3)cc2)c[n+]1[O-]
TC (Rattus norvegicus [6]): <146.6 mg/dL | TG (Rattus norvegicus [7]): 45.8 mg/dL | Liver weight (Rattus norvegicus [8]): 57.8 mg (g of body weight)-1 | HDL-C (Rattus norvegicus [9]): 45.3 mg/dL

CCOC(=O)C(C)(C)Oc1ccc(Cl)cc1 [CLOFIBRATE]
Liver weight (Rattus norvegicus [13]): <43.1 mg (g of body weight)-1 | TC (Rattus norvegicus [6]): <251.2 mg/dL | TG (Rattus norvegicus [7]): <51.8 mg/dL | Liver weight (Rattus norvegicus [8]): 52.8 mg (g of body weight)-1 | HDL-C (Rattus norvegicus [9]): 29.4 mg/dL

CC(C)(CCCCOc1ccc(CCCCc2ccccc2)cc1)C(=O)O
TG (Rattus norvegicus [16]): 33.8 mg/dL | TC (Rattus norvegicus [17]): 132.9 mg/dL | Liver weight (Rattus norvegicus [18]): 59.1 mg (g of body weight)-1 | TG (Rattus norvegicus [19]): 49 mg/dL | HDL-C (Rattus norvegicus [20]): 50.9 mg/dL | Liver weight (Rattus norvegicus [21]): 55.8 mg (g of body weight)-1 | Liver weight (Rattus norvegicus [22]): 41.7 mg (g of body weight)-1 | HDL-C (Rattus norvegicus [23]): 49.4 mg/dL | TC (Rattus norvegicus [24]): 159.5 mg/dL | Liver weight (Rattus norvegicus [25]): 40.7 mg (g of body weight)-1

CC(C)(CCCCCCCOc1ccc(CCCCc2ccccc2)cc1)C(=O)O
Liver weight (Rattus norvegicus [13]): <40.1 mg (g of body weight)-1 | TC (Rattus norvegicus [6]): <145.7 mg/dL | TG (Rattus norvegicus [7]): 43 mg/dL | Liver weight (Rattus norvegicus [8]): 57.6 mg (g of body weight)-1 | HDL-C (Rattus norvegicus [9]): <65.2 mg/dL

CC(C)(Oc1ccc(CCCCc2ccccc2)cc1)C(=O)O
Liver weight (Rattus norvegicus [1]): 54.6 mg (g of body weight)-1 | HDL-C (Rattus norvegicus [2]): 50.7 mg/dL | Liver weight (Rattus norvegicus [14]): 67.1 mg (g of body weight)-1 | TG (Rattus norvegicus [3]): 41.3 mg/dL | TC (Rattus norvegicus [5]): 194.6 mg/dL

CC(C)(CCCCOc1ccc(CCCCc2ccccc2)cc1)C(=O)OCc1cccnc1
Liver weight (Rattus norvegicus [1]): 38 mg (g of body weight)-1 | HDL-C (Rattus norvegicus [2]): 59.6 mg/dL | TG (Rattus norvegicus [3]): 43.9 mg/dL | Liver weight (Rattus norvegicus [4]): 58.2 mg (g of body weight)-1 | TC (Rattus norvegicus [5]): 154.3 mg/dL
